Results on 30 compounds are retold here after US20050054696A1, “Indole compounds and medicinal use thereof” (priority 2001, published 2005).

Each structure is given as a SMILES string. Some results are limits rather than exact numbers.

As usually defined, the IC50 is the concentration that inhibits the measured activity by half.

The assay deals with T1, recombinant human liver glycogen phosphorylase (HLGPa) (Homo sapiens, UniProt P06737).
T1 construct: made in house; host or cells: Sf9 insect cells (unpurified cell lysate used as enzyme solution)
T1 sequence (P06737 1-847): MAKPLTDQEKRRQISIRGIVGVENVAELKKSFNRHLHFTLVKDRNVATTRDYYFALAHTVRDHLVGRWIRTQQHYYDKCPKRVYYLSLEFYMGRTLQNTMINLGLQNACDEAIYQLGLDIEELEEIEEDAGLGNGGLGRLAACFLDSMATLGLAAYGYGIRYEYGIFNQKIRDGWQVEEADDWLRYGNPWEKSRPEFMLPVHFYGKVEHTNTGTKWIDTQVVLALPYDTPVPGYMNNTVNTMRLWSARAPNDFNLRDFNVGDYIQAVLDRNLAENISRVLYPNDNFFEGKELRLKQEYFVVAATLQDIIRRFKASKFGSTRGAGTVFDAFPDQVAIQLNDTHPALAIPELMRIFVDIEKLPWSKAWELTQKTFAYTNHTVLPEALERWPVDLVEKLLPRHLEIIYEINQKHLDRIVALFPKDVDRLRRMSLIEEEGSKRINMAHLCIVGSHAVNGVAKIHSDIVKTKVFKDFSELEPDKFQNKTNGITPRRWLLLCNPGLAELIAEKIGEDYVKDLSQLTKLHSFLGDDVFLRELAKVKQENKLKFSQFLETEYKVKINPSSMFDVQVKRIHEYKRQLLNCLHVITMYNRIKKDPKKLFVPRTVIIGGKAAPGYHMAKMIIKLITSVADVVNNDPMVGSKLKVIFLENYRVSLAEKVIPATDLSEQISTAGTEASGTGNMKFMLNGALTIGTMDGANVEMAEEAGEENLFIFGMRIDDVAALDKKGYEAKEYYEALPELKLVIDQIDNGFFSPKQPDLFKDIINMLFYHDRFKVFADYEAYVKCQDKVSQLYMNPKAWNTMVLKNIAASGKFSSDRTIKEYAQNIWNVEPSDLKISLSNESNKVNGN
Briefly: Measurement of liver glycogen phosphorylase activity (enzyme inhibitory activity against HLGPa). The format is biochemical. Particulars: Sf9 cell lysate expressing recombinant enzyme; reverse reaction (glycogen synthesis from G1-P), phosphate by malachite green, 60 min room temperature. Here is the method: Measurement Method of Liver Glycogen Phosphorylase Activity
The measurement of the glycogen phosphorylase activity was performed by measuring the concentration of phosphoric acic produced by a reverse reaction, that is, a reaction wherein the glycogen phosphorylase synthesizes glycogen from G1-P. A cell lysate of Sf9 cells that forcibly expressed recombinant human liver glycogen phosphorylase was diluted to a protein amount of 80 μg/mL with 1 mM imidazole-hydrochloric acid buffer (pH 7.0, containing 0.2 mM PMSF, 250 mM NaCl, 0.025% BSA) and the dilute cell lysate was used as an enzyme solution of human liver glycogen phosphorylase. As a substrate solution, 25 mM Tris-HCl buffer (pH 7.2, containing 250 mM KCl, 6.25 mM MgCl2, 6.25 mM EGTA, 1.25 mM glucose-1-phosphate, 2.5 mg/ml glycogen, 7.5 mM glucose) was used. The test drug was dissolved in 0.5% dimethyl sulfoxide (DMSO). To a mixture of the test drug (10 μl) and the substrate solution (20 μl) was added an enzyme solution (20 μl) to start the enzyme reaction. As a control, 0.5% DMSO was added instead of the test drug. One free of addition of enzyme was used as a blank. The mixture was reacted at room temperature for 60 min, and a malachite green solution (50 μl) was added. The mixture was further reacted at room temperature for 20 min and absorbance at 650 nm was measured. An enzyme solution was added to the blank simultaneously with the malachite green solution and the measurement was done in the same manner. The percent inhibition (%) of the test drug was calculated from ((value of control−value of the test drug)/(value of control−value of blank))×100 (%).
In the case of `Cc1ccccc1C(=O)NNC(=O)c1cc2cc(Cl)ccc2[nH]1` [Example 1-13, 2-methylbenzoic acid 2-(5-chloro-1H-indole-2-carbonyl)hydrazide], the concentration for half-maximal inhibition (IC50) came out at 72 nM.

Take `O=C(NNC(=O)C1CCCCC1)c1cc2cc(Cl)ccc2[nH]1` [Example 1-23, cyclohexanecarboxylic acid 2-(5-chloro-1H-indole-2-carbonyl)hydrazide]: the IC50 was 75 nM.

`O=C(NNC(=O)c1cc2cc([N+](=O)[O-])ccc2[nH]1)c1ccccc1` [Example 1-122, benzoic acid 2-(5-nitro-1H-indole-2-carbonyl)hydrazide]: the IC50 is greater than 100 nM.

As to `O=C(NN1C(=O)CNC1=O)c1cc2cc(Cl)ccc2[nH]1` [Example 4-11, 5-chloro-1H-indole-2-carboxylic acid (2,4-dioxoimidazolidin-3-yl)amide], the IC50 is greater than 100 nM.

With `COc1cccc(C(=O)NNC(=O)c2cc3cc(Cl)ccc3[nH]2)c1` [Example 1-16, 3-methoxybenzoic acid 2-(5-chloro-1H-indole-2-carbonyl)hydrazide], the 50% inhibitory concentration (IC50) came out at 73 nM.

As for `Nc1cc(F)c(F)cc1C(=O)NNC(=O)c1cc2cc(Cl)ccc2[nH]1` [Example 1-100, 2-amino-4,5-difluorobenzoic acid 2-(5-chloro-1H-indole-2-carbonyl)hydrazide], the IC50 was 240 nM.

In the case of `O=C(NNC(=O)c1cc2cc(Cl)ccc2[nH]1)c1cccc(F)c1` [Example 1-28, 3-fluorobenzoic acid 2-(5-chloro-1H-indole-2-carbonyl)hydrazide], the IC50 turned out to be 49 nM.

Take `O=C(NN1C(=O)CCN(c2ccccn2)C1=O)c1cc2cc(Cl)ccc2[nH]1` [Example 3-6, 5-chloro-1H-indole-2-carboxylic acid (2,4-dioxo-1-(pyridin-2-yl)perhydropyrimidin-3-yl)amide]: the IC50 came out at 190 nM.

On to `O=C(NN1C(=O)CN(c2ccc(F)cc2)C1=O)c1cc2cc(Cl)ccc2[nH]1` [Example 4-13, 5-chloro-1H-indole-2-carboxylic acid (2,4-dioxo-1-(4-fluorophenyl)imidazolidin-3-yl)amide], for which the concentration for half-maximal inhibition (IC50) is greater than 100 nM.

For the compound `O=C(NNC(=O)c1cc2cc(Cl)ccc2[nH]1)c1ccccc1` [Example 1, benzoic acid 2-(5-chloro-1H-indole-2-carbonyl)hydrazide], the IC50 was determined as 38 nM.

For `Cc1ccc2[nH]c(C(=O)Nn3c(=O)[nH]c4ccc(O)cc4c3=O)cc2c1` [Example 2-28, 5-methyl-1H-indole-2-carboxylic acid (1,2,3,4-tetrahydro-6-hydroxy-2,4-dioxoquinazolin-3-yl)amide], the IC50 worked out at 56 nM.

As to `N=C(NNC(=O)c1cc2cc(Cl)ccc2[nH]1)c1ccccn1` [Example 1-136, 5-chloro-1H-indole-2-carboxylic acid 2-(imino-(pyridin-2-yl)-methyl)hydrazide], the 50% inhibitory concentration (IC50) came out at 270 nM.

Regarding `O=C(NN1C(=O)CN(c2ccccc2)C1=O)c1cc2cc(Cl)ccc2[nH]1` [Example 4-2, N-(2,4-dioxo-1-phenylimidazolidin-3-yl)-5-chloro-1H-indole-2-carboxamide], the half-inhibitory concentration (IC50) amounted to 23 nM.

For the compound `Cc1cccc(N2CCC(=O)N(NC(=O)c3cc4cc(Cl)ccc4[nH]3)C2=O)c1` [Example 3-12, 5-chloro-1H-indole-2-carboxylic acid (2,4-dioxo-1-(m-tolyl)perhydropyrimidin-3-yl)amide], the half-inhibitory concentration (IC50) was found to be 680 nM.

On to `CN(NC(=O)c1cc2cc(Cl)ccc2[nH]1)C(=O)Nc1ccccc1` [Example 5-8, 5-chloro-1H-indole-2-carboxylic acid 2-(anilinocarbonyl)-2-methylhydrazide], for which the 50% inhibitory concentration (IC50) was greater than 100 nM.

As for `O=C(NNC(=O)c1cc2cc(Cl)ccc2[nH]1)c1ccc(Cl)cc1` [Example 1-21, 4-chlorobenzoic acid 2-(5-chloro-1H-indole-2-carbonyl)hydrazide], the 50% inhibitory concentration (IC50) was 49 nM.

As to `O=C(NN1C(=O)CCN(c2ccccc2)C1=O)c1cc2cc(F)ccc2[nH]1` [Example 3-9, 5-fluoro-1H-indole-2-carboxylic acid (2,4-dioxo-1-phenyl-perhydropyrimidin-3-yl)amide], the IC50 was 730 nM.

On to `O=C(NN1C(=O)CCN(c2cccc(Cl)c2)C1=O)c1cc2cc(Cl)ccc2[nH]1` [Example 3-11, 5-chloro-1H-indole-2-carboxylic acid (1-(3-chlorophenyl)-2,4-dioxoperhydropyrimidin-3-yl)amide], for which the concentration for half-maximal inhibition (IC50) turned out to be 520 nM.

On to `O=C(NN1C(=O)CN(c2ccccc2)C1=S)c1cc2cc(Cl)ccc2[nH]1` [Example 4-3, N-(4-oxo-1-phenyl-2-thioxoimidazolidin-3-yl)-5-chloro-1H-indole-2-carboxamide], for which the half-inhibitory concentration (IC50) is greater than 100 nM.

Turning to `N=C(NNC(=O)c1cc2cc(Cl)ccc2[nH]1)c1cccc(F)c1` [Example 1-127, 5-chloro-1H-indole-2-carboxylic acid 2-((3-fluorophenyl)-imino-methyl)hydrazide], the IC50 was found to be 84 nM.

Consider `O=C(NN1C(=O)NC(c2ccccc2F)C1=O)c1cc2cc(Cl)ccc2[nH]1` (stereo not drawn) [Example 4-14, 5-chloro-1H-indole-2-carboxylic acid (2,5-dioxo-4-(2-fluorophenyl)imidazolidin-1-yl)amide], for which the concentration for half-maximal inhibition (IC50) was found to be 110 nM.

On to `COC(=O)Nc1ccccc1C(=O)NNC(=O)c1cc2cc(F)ccc2[nH]1` [Example 1-105, methyl (2-(2-(5-fluoro-1H-indole-2-carbonyl)hydrazinocarbonyl)phenyl)carbamate], for which the IC50 was determined as 87 nM.

For the compound `O=C(Nc1ccccc1C(=O)NNC(=O)c1cc2cc(Cl)ccc2[nH]1)Oc1ccccc1` [Example 1-109, phenyl (2-(2-(5-chloro-1H-indole-2-carbonyl)hydrazinocarbonyl)phenyl)carbamate], the IC50 turned out to be 140 nM.

As for `CN(C)c1ccccc1C(=O)NNC(=O)c1cc2cc(Cl)ccc2[nH]1` [Example 1-51, 2-(dimethylamino)benzoic acid 2-(5-chloro-1H-indole-2-carbonyl)hydrazide], the 50% inhibitory concentration (IC50) was 89 nM.

Take `N=C(NNC(=O)c1cc2cc(Cl)ccc2[nH]1)c1ccco1` [Example 1-137, 5-chloro-1H-indole-2-carboxylic acid 2-((furan-2-yl)-imino-methyl)hydrazide]: the IC50 came to 330 nM.

Consider `N=C(NNC(=O)c1cc2cc(Cl)ccc2[nH]1)c1cccc(F)c1` [Example 1-132, 5-chloro-1H-indole-2-carboxylic acid 2-((3-fluorophenyl)-imino-methyl)hydrazide], for which the IC50 stood at 110 nM.

For the compound `CC(=O)Nc1ccccc1C(=O)NNC(=O)c1cc2cc(Cl)ccc2[nH]1` [Example 1-47, N-(2-(2-(5-chloro-1H-indole-2-carbonyl)hydrazinocarbonyl)phenyl)acetamide], the IC50 was 660 nM.

Consider `O=C(NNC(=O)c1cc2ccc(Cl)cc2[nH]1)c1ccccc1` [Example 1-124, benzoic acid 2-(6-chloro-1H-indole-2-carbonyl)hydrazide], for which the IC50 was greater than 100 nM.

On to `COc1ccc2[nH]c(=O)n(NC(=O)c3cc4cc(C)ccc4[nH]3)c(=O)c2c1` [Example 2-27, 5-methyl-1H-indole-2-carboxylic acid (1,2,3,4-tetrahydro-6-methoxy-2,4-dioxoquinazolin-3-yl)amide], for which the IC50 turned out to be 300 nM.

Consider `O=C(NNC(=O)c1cc2cc(Cl)ccc2[nH]1)c1ccoc1` [Example 1-84, furan-3-carboxylic acid 2-(5-chloro-1H-indole-2-carbonyl)hydrazide], for which the half-inhibitory concentration (IC50) is 20 nM.
